This note sets out measurements from paper PMC11866022, “Long-Chain Cyclic Arylguanidines as Multifunctional Serotonin Receptor Ligands with Antiproliferative Activity” (ACS Omega, 2025).

Data set [1] can be described thus: Affinity to phospholipids, CHI IAM (Valko protocol). The conditions noted are these: IAM column. The format is physicochemical. The procedure:
Lipophilicity and affinity for phospholipids for each investigated molecule were assessed. Additionally, selected compounds with the highest biological activities have been characterized by their affinity plasma proteins. All experiments were performed using protocols developed by Valko.[35] These methods facilitated the calculation of chromatographic hydrophobicity indices (CHI) and plasma protein binding percentages (%PPB) in a biochromatographic experiment, with results compared to the reference. A detailed description of the experiments is provided in the Supporting Information (SI), along with the raw data. […] Although high lipophilicity may limit the medical use of the analyzed compounds since they may tend to accumulate excessively in the human body, it is remarkable that several clinically used drugs also have high lipophilicity. […] (Table 5).
The detailed procedure is presented in previous publications.[53] High-performance liquid chromatography (HPLC) analyses were conducted using the Prominence-1 LC-2030C 3D system (Shimadzu) with a DAD detector, employing three different chromatographic columns with specific stationary phases and mobile phases. The analysis was performed at 30 °C with a flow rate of 1.5 mL/min for IAM and C18 columns, and 0.9 mL/min for the Chiralpak column. Calibration standards for the columns were sourced from various suppliers and dissolved in dimethyl sulfoxide. Detection occurred in the UV range (190–300 nm) with a 5 μL injection volume. Each compound was analyzed in triplicate. Retention times for the tested compounds and calibration standards are provided in the Supporting Information (Tables S1 and S2).

The target in data set [2] is T1, 5-HT7 (Homo sapiens, UniProt P34969).
T1 construct: expressed in transfected cells; host or cells: HEK293
The data set is described as follows: Radioligand binding assay, 5-HT7 ([3H]-5-CT). The conditions noted are these: Table 3, unit inferred; 0.8 nM [3H]-5-CT. The procedure: (§1) Their functional activity was also evaluated by assessing their ability to inhibit agonist-induced cAMP production in HEK293 cells (Table 3). Extended radioisotope tests were aimed at detecting potential affinity for other aminergic receptors, whose role in cancer treatment may be important. Functions were tested for all receptors. The essence of functional tests results from the fact that serotonin stimulates tumor progression. Therefore, the ligand should have the potential to reduce its concentration, i.e., act as an antagonist.[39]
(§2) The detailed procedure is presented in previous publications.[53] Assays were performed by incubating for 1 h at 37 °C (room temperature for 5-HT1A) in 200 μL volumes on 96-well plates. The reaction was terminated by rapid filtration using Unifilter plates, and radioactivity on the filters was measured with a PerkinElmer Microbeta plate reader. Radioligands used were:
(§3) Eight concentrations (10^–4 to 10^–11 M) were tested in triplicate for each compound. Inhibition constants (Ki) were calculated using the Cheng–Prusoff equation.[54] The results are expressed as the means of at least two independent experiments.

The target of data set [3] is T2, CYP2D6 (Homo sapiens, UniProt P10635).
T2 construct: purchased Promega
Nature of the data set: P450-Glo assay, CYP2D6. The format is in vitro ADME. From the text: In order to evaluate excretion, we examined the effect on the activity of two cytochrome P-450 isoforms. Inhibition of their activity may lead to the occurrence of drug–drug interactions.

Data set [4] deals with Danio rerio. The conditions noted are these: in vivo. The procedure: Two compounds, PP 10 and PP 15, were tested for cardiotoxicity in the Danio rerio experimental model (OECD 236 test). […]. To assess potential neurotoxic effects, locomotor activity was examined in the Danio rerio model. Zebrafish larvae’s response to light and dark transitions serves as a useful method for detecting neurotoxicity. […] In our experiment, we switched from light to dark conditions, as zebrafish larvae are known to avoid light and seek darker areas. This behavior helps them evade predators and maintain ideal environmental conditions. […]
Figure 4 A: Toxicity of PP 10 and PP 15in vivo in the Danio reiro embryo toxicity test. […] Cardiotoxicity of compounds B: PP 10 and C: PP 15 was evaluated by measuring the heart rate (beats per minute) in 5-dpf Danio rerio larvae, maintained in the E3 fish embryo growth medium. Statistical analysis was performed using GraphPad Prism 10.0.0, with one-way ANOVA followed by Dunnett’s comparison test (*p < 0.05, compared to the negative control E3). […] | The toxicity of compounds was evaluated using two tests: the fish embryo toxicity (FET) test and neurotoxicity assessment.[53] […] Acute toxicity was assessed by monitoring signs such as coagulation of fertilized eggs, somite formation absence, tailbud separation, and lack of heartbeat. The LD50 value was calculated, and cardiovascular effects were monitored through heartbeat observations.

Data set [5] has as its target T3, 5-HT6 (Homo sapiens, UniProt P50406).
T3 construct: expressed in transfected cells; host or cells: HEK293
Nature of the data set: Radioligand binding assay, 5-HT6 ([3H]-LSD). The conditions noted are these: HEK293 cell line with human 5-HT6R; 2 nM [3H]-LSD. Here is the method: Ligand affinity for 5-HT6 receptors was subsequently tested with a radioligand binding assay, using the HEK293 cell line with human 5-HT6R, aiming to select compounds with the strongest affinity. Three compounds belonging to 2-naphthalenesulfonamide derivatives of 3,4-dihydroquinazolin-2-amines were obtained (Table 1).
as §2, §3

The subject of data set [6] is Feline catus astrocyte (PG-4). The data set is described as follows: Cytotoxicity, PG-4 astrocytes. The settings on record: Felis catus; normal astrocyte line. It is filed as cell-based. The procedure: The chosen group of ligands was further examined for their ability to inhibit proliferation across multiple cancer cell lines related to the CNS system (1321N1, U87MG, LN-229, and U-251). These cell lines were characterized by different mutation profiles, the main one being the variable status of the p53 protein. In detail, U87MG cells have a wild-type p53 protein, while astrocytoma and the rest of GBM cells harbor mutated p53 protein. Additional assays were performed on MCF7 breast cancer and AsPC-1 pancreatic cancer cells. The wide range of tested lines was aimed at screening the anticancer potential of the tested compounds. The first represents one of the most common and the second one of the most aggressive cancers in the world. Comparing the activity of compounds on GBM cells to other types of cancer may reveal their selectivity and usefulness in targeted therapies. The cytotoxicity of the compounds on normal human astrocytes (NHA) and Feline catus astrocyte (PG-4) was determined. Tests on normal lines serve to verify the potential toxicity of the tested compounds on healthy cells. Due to the targeting of CNS tumors, astrocytes were selected as normal lines.

In data set [7] the target is T4, D2 (Homo sapiens, UniProt P14416).
T4 construct: expressed in transfected cells; host or cells: HEK293
Nature of the data set: Functional cAMP assay (LANCE Ultra), D2. It is filed as cell-based. The settings on record: Table 3, unit inferred, antagonist mode, 10 nM dopamine. Here is the method: as §1
The detailed procedure is presented in previous publications.[53] The functional activity of the compounds was assessed using the LANCE Ultra cAMP detection kit (PerkinElmer). […] For other receptors (5-HT7R, 5-HT1AR, and 5-HT6R), 5-CT was used at 10, 100, and 1000 nM, respectively. Each compound was tested in triplicate across eight concentrations. The inhibitory constant (Kb) for each antagonist was calculated using the Cheng–Prusoff equation.

The target of data set [8] is T3, 5-HT6. Nature of the data set: Functional cAMP assay (LANCE Ultra), 5-HT6. It is filed as cell-based. The conditions noted are these: Table 3, unit inferred, agonist mode. (In general: Cyclic AMP is a second messenger, typically raised through Gs and lowered through Gi signalling.)
The subject of data set [9] is HSA and AGP in a ratio 24:1. The data set is described as follows: TRANSILXL PPB plasma protein binding assay. The conditions noted are these: Figures S149, S150.

T3 sequence (P50406 whole entry): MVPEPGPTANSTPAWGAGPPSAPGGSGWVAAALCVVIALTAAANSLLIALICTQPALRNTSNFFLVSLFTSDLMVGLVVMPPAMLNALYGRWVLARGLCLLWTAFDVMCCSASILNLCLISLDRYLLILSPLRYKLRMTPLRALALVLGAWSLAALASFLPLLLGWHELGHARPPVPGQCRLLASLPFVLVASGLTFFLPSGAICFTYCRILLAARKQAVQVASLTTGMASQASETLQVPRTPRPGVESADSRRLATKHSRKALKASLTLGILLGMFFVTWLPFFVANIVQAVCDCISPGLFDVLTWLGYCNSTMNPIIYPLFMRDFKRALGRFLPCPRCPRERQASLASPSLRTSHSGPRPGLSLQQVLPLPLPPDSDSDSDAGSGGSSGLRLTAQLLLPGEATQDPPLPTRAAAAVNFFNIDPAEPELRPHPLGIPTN
T1 sequence (P34969 whole entry, species assumed): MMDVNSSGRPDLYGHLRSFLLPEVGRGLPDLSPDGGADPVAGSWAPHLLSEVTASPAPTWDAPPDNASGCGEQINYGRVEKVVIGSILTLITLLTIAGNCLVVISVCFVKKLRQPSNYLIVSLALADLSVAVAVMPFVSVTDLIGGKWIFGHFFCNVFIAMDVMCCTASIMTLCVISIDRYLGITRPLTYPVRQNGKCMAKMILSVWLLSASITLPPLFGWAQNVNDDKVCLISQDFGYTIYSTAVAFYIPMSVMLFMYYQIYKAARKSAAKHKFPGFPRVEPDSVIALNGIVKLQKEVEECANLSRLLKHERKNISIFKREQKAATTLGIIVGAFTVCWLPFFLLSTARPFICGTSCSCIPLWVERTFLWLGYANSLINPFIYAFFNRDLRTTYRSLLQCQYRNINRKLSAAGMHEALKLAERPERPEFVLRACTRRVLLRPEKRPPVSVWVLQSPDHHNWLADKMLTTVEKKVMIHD
T4 sequence (P14416 whole entry): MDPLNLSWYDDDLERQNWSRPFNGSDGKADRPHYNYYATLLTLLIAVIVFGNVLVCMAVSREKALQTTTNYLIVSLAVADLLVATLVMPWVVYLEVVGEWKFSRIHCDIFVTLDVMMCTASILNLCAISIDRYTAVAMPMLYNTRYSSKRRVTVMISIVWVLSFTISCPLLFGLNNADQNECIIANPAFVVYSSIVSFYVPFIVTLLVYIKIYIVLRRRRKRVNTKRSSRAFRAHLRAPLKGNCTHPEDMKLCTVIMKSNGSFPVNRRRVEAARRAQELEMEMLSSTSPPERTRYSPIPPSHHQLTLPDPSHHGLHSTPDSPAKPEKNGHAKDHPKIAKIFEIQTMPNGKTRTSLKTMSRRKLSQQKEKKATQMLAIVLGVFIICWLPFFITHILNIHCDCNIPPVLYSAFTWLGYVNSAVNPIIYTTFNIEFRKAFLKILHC
T2 sequence (P10635 whole entry): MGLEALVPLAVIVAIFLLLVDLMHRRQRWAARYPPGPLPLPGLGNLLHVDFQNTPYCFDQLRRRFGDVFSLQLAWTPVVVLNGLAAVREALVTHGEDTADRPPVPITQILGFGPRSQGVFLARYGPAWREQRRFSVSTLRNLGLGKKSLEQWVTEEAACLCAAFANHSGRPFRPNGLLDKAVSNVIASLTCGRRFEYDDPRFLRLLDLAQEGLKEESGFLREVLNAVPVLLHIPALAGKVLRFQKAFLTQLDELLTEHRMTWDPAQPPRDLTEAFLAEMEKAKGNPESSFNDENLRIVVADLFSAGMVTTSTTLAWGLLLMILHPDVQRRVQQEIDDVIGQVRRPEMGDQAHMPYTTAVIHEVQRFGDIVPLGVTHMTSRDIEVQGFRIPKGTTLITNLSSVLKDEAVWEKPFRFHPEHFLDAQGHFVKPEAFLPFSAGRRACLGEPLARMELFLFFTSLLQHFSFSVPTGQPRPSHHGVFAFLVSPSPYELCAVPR

The term Ki denotes a dissociation constant, usually derived from enzyme kinetics or from competition with a known ligand. A high value points to lower affinity. As a reminder, the IC50 is the midpoint of a concentration-inhibition curve. The low end stands for greater potency, the high end for weaker potency. Broadly, the Kb is the equilibrium dissociation constant of an antagonist, usually derived from a functional assay. Low values mean a more potent antagonist, high ones a less potent antagonist. In the case of `CC1NC(NCCCCCCNS(=O)(=O)c2cccc3ccccc23)=Nc2ccccc21` (centres unmarked) [PP 10, N-{6-[(4-Methyl-3,4-dihydroquinazolin-2-yl)amino]hexyl}naphthalene-1-sulfonamide], the “CHI IAM” value in data set [1] was 56.4. For the same compound, the values for the Ki in data set [2] and in data set [5] were 189 nM and 96 ± 22 nM, respectively. Further, in data set [3], the “impact on the activity of CYP2D6” value is given as “strong effect at a concentration of 1 μM”. Also, the “cardiotoxic effects (heart rate)” value in [4] is listed as “Neither compound displayed cardiotoxic effects”. Besides, the IC50 in data set [6] was above 25000 nM. The compound further registered a Kb in [7] of 1810 nM.

What is called EC50 is the concentration at which the effect is half-maximal. A lower EC50 goes with an effect from little substance. For the compound `CC1NC(NCCCCCCNS(=O)(=O)c2c(Cl)ccc3ccccc23)=Nc2ccccc21` (centres unmarked) [PP 13, 2-Chloro-N-{6-[(4-methyl-3,4-dihydroquinazolin-2-yl)amino]hexyl}naphthalene-1-sulfonamide], the “CHI IAM” value in data set [1] is on record as 59.9. Also, the Ki in [2] turned out to be 198 nM; in [5], 69 ± 17 nM. This compound gave an EC50 in data set [8] of 488 nM. In [9], the “amount remaining after incubation with human plasma proteins (UPLC)” value is listed as “COMPOUND NOT DETECTED”. Also, the Kb in [7] was 858 nM.

In the case of `O=S1(=O)c2cccc3cccc(c23)N1CCCCCCNC1=Nc2ccccc2CN1` [PP 24, 3-{6-[(3,4-Dihydroquinazolin-2-yl)amino]hexyl}-2λ^6-thia-3-azatricyclo[6.3.1.0^4,^12]dodeca-1(11),4(12),5,7,9-pentaene-2,2-dione], in data set [1], the “CHI IAM” value stood at 56.5. Also, in data set [5], the Ki is 272 ± 68 nM. The “amount remaining after incubation with human plasma proteins (UPLC)” value in data set [9] is listed as “COMPOUND NOT DETECTED”.

Consider `O=S(=O)(c1cccc2ccccc12)N1CCN(CCNC2=Nc3ccccc3CN2)CC1` [PP 6, N-{2-[4-(Naphthalene-1-sulfonyl)piperazin-1-yl]ethyl}-3,4-dihydroquinazolin-2-amine], for which the “CHI IAM” value in data set [1] turned out to be 50.9. For the same compound, the Ki in data set [2] is 2400 nM; in data set [5], 109 ± 27 nM. Besides, the EC50 in data set [8] was 367 nM.

As to `O=S(=O)(NCCCCCCNc1ncc2ccccc2n1)c1cccc2ccccc12` [PP 15, N-{6-[(Quinazolin-2-yl)amino]hexyl}naphthalene-1-sulfonamide], the “CHI IAM” value in data set [1] is reported as 45.8. Further, the Ki in [2] was 1560 nM; in [5], 42 ± 11 nM. In addition, in data set [3], the “impact on the activity of CYP2D6” value is on record as “passive”. In [4], the “cardiotoxic effects (heart rate)” value is “Neither compound displayed cardiotoxic effects”. In [6], this compound gave an IC50 above 25000 nM.
